Laboratory results reported in patent US20150157588A1, “Pharmaceutical Composition Comprising Amino-Phenyl-Acetic Acid Octadec-(Z)-9-enyl Ester and Use Thereof for Treating Tumors” (Yeda Research and Development Co., Ltd., priority 2012, published 2015).

Assay: Light scattering at 90 degrees of aggregates in PBS with 0-20% ethanol
Type: physicochemical
Set-up: key to intensity of light scattering, relative scale: relative light-scattering intensity; 0% ethanol = 100
Details: 10 μM in PBS; for intensity of light scattering, relative scale: 90 degrees, 560 nm
Protocol: Light scattering at 90 degrees can be used to assess the amount of aggregates in a solution. Higher readings are indicative of a higher degree of aggregation, while lower readings are indicative of disintegration of aggregates into monomers. A series of 10 μM amino-phenyl-acetic acid octadec-(Z)-9-enyl ester solutions was prepared in PBS containing ethanol concentrations of 0-20%. The intensity of light scattering of each solution was recorded at 90 degrees with a 560 nm beam in a Perkin Elmer fluorimeter. The results, presented in a relative scale with respect to the percent ethanol (% ethanol indicated in brackets), were as follows: 100 (0); 98 (0.5); 90 (1): 75 (2); 45(3); 26 (4); 10 (5); 8 (10); 6 (20).

In the case of `CCCCCCCC/C=C\CCCCCCCCOC(=O)C(N)c1ccccc1` (stereo not shown) [amino-phenyl-acetic acid octadec-(Z)-9-enyl ester], the “ethanol concentration in whose presence micellar aggregates disintegrate” value is reported as “above 4 % ethanol”, the “intensity of light scattering, relative scale” value (from here on “intensity … relative scale”) (0% ethanol) is reported as 100 and the “intensity … relative scale” value (0.5% ethanol) is reported as 98. The “intensity … relative scale” value (1% ethanol) was 90, the “intensity … relative scale” value (2% ethanol) was 75 and the “intensity … relative scale” value (3% ethanol) was 45. For the same compound, the “intensity … relative scale” value (4% ethanol) was 26, the “intensity … relative scale” value (5% ethanol) was 10 and the “intensity … relative scale” value (10% ethanol) was 8. The “intensity … relative scale” value (20% ethanol) was 6.
